Data on one compound can be found in paper PMC7217877, “N-AS-triggered SPMs are direct regulators of microglia in a model of Alzheimer’s disease” (Nature Communications, 2020).

Where “and” joins values, the source holds several entries; their conditions need not be identical. Equal entries are not always repeated.

The test system of assay [1] is APP/PS1 mice. The experiment in a line: open field test (Supplementary Fig 7f-i). Type of assay: in vivo, mouse. On the set-up: open field test, sFig 7f (sheet untitled): unit not given here. As for the experimental part:
Transgenic mouse lines over-expressing the hAPP695swe (APP) and presenilin-1M146V (PS1) mutations were originated from GlaxoSmithKline (Harlow, UK)[32] and maintained as described previously. We purchased 5×FAD mice from Jackson Labs (Stock number. 34840-JAX). Because APP/PS1 and 5xFAD mice show sex differences in disease progression, we used only male mice. To examine possible therapeutic effect of N-AS and aspirin in APP/PS1 mice, the N-AS (30 mg kg^−1, Sigma-Aldrich, 01912) was injected daily s.c. for 8 weeks to 7-months-old APP/PS1 mice until the age of 9 months, and aspirin (2 mg kg^−1, Sigma-Aldrich, A5376)[33] was administrated orally to 7-months-old APP/PS1 mice for 8 weeks. […] Block randomization method was used to allocate the animals to experimental groups. To eliminate the bias, we were blinded in experimental progress such as data collection and data analysis. Mice were housed at temperature of 22 °C and a 12 h day/12 h night cycle with free access to tap water and food pellets. All protocols were approved by the Kyungpook National University Institutional Animal Care and Use Committee. […] Freezing was analyzed for 5 min. […] Overall activity in the box was measured, and the amount of time and distance traveled in the center arena was noted. […] The total number of transitions, latency to first enter the light chamber, distance traveled, and time spent in each chamber were recorded.

Assay [2] relates to APP/PS1 mice. The experiment in a line: flow cytometry of brain immune cells (Fig 5c-g). Type of assay: in vivo, mouse. The note with it: APP/PS1 + N-AS, individual values. The method, then: Transgenic mouse lines over-expressing the hAPP695swe (APP) and presenilin-1M146V (PS1) mutations were originated from GlaxoSmithKline (Harlow, UK)[32] and maintained as described previously. We purchased 5×FAD mice from Jackson Labs (Stock number. 34840-JAX). Because APP/PS1 and 5xFAD mice show sex differences in disease progression, we used only male mice. To examine possible therapeutic effect of N-AS and aspirin in APP/PS1 mice, the N-AS (30 mg kg^−1, Sigma-Aldrich, 01912) was injected daily s.c. for 8 weeks to 7-months-old APP/PS1 mice until the age of 9 months, and aspirin (2 mg kg^−1, Sigma-Aldrich, A5376)[33] was administrated orally to 7-months-old APP/PS1 mice for 8 weeks. Also, to confirm possible therapeutic efficacy of N-AS in 5×FAD, the N-AS (30 mg kg^−1, Sigma-Aldrich, 01912) was injected daily s.c. for 4 weeks to 3-months-old 5×FAD mice until the age of 4 months. Block randomization method was used to allocate the animals to experimental groups. To eliminate the bias, we were blinded in experimental progress such as data collection and data analysis. Mice were housed at temperature of 22 °C and a 12 h day/12 h night cycle with free access to tap water and food pellets. All protocols were approved by the Kyungpook National University Institutional Animal Care and Use Committee.
Brain microglia polarity and immune cells in brain and blood were analyzed by flow cytometry. Cells from WT, APP/PS1, and APP/PS1 treated with N-AS mice brain were prepared as previously described with minor modifications. Brains of WT, APP/PS1, and APP/PS1 treated with N-AS mice were dissected and immediately transferred in ice-cold HBSS (Gibco). After gentle mincing, the brain was digested in a HBSS solution containing collagenase P (0.2 mg ml^−1, Roche), dispase II (0.8 mg ml^−1, Roche), DNase I (0.01 mg ml^−1, Roche), and collagenase A (0.3 mg ml^−1, Roche) at 37 °C for 1 h under gentle rocking. Digestion was stopped by adding FBS (Gibco) on ice. The supernatants were centrifuged at 250×g for 10 min at 4 °C. The pellet was resuspended in 25% BSA (Gibco)/PBS (Gibco) for myelin removal. Following a centrifugation step at 3000×g for 30 min at 4 °C, the myelin containing supernatant was discarded. The cell pellets were then resuspended in 1 ml of HBSS and filtered through a 40 μm mesh, followed by a washing step in HBSS. The cell pellets were resuspended in 1 ml of red blood cell lysis buffer (BD Biosciences) and incubated at RT for 10 min for lysis of erythrocytes. Subsequently, 2 ml of MACs buffer (Miltenyl Biotec, 130-091-222) was added and centrifuged at 250×g for 10 min at 4 °C. Cells from WT, APP/PS1, and APP/PS1 treated with N-AS mice blood were prepared as previously described with minor modifications. Blood was collected in sodium-heparin tube (BD, 367871) by cardiac puncture. Red blood cells were lysed once at 4 °C for 10 min in 0.15 M NH4Cl ([…] Technologies), washed once with PBS (Gibco), and counted using cell counter (Logos biosystems). […]
On the technique in general: In flow cytometry, cells or beads pass a laser one at a time.

`CCCCCCCCCCCCC/C=C/[C@@H](O)[C@H](CO)NC(C)=O` [N-AS, N-((2S,3R,E)-1,3-Dihydroxyoctadec-4-en-2-yl)acetamide]: in the assay on APP/PS1 mice [1] (APP/PS1 + N-AS, sums to 600 with sFig 7g), the “open field test, sFig 7f (sheet untitled)” value is 520.5 and 509.5 and 517.5 and 503.5 and 522.5 and 508 and 406.5 and 460.5. Also, in the assay on APP/PS1 mice [1] (N-AS vs APP/PS1), the “locomotion and spontaneous activity, open field test” value is “improved locomotion and spontaneous activity”. Moreover, in the assay on APP/PS1 mice [2], the “calculated percentage of B220+ B cell” value is 2.8 and 2.66 and 2.73 and 2.695; the “calculated percentage of CD4+ T cell” value was 2.24 and 2.43 and 2.335 and 2.3825; the “calculated percentage of CD45+CD11b+Ly6ChiLy6G- monocyte” value is 0.84 and 1.06 and 0.92 and 0.95 and 0.99 and 0.935; the “calculated percentage of CD45hi CD11b+ Gr-1- F4/80+ CD206+ (anti-inflammatory macrophage)” value is 0.4 and 0.45 and 0.37 and 0.39 and 0.41 and 0.38. In the assay on APP/PS1 mice [2], the “calculated percentage of CD45hi CD11b+ Gr-1- F4/80+ MHCIIhi (pro-inflammatory macrophage)” value was 0.46 and 0.45 and 0.59 and 0.4 and 0.52 and 0.495; the “calculated percentage of cd45+cd11b+gr1+ neutrophil” value was 0.452 and 0.46 and 0.34 and 0.504 and 0.4 and 0.422; the “calculated percentage of cd45+ly6g+gr1+ neutrophil” value is 0.99 and 1.19 and 0.83 and 0.97 and 1.01 and 0.9.
